{"source": "patent US11116819B2", "about": "“Methods and compositions for mobilizing stem cells” (President and Fellows of Harvard College, priority 2013, dated 2021)", "molecules": {"B1": {"name": "G-CSF: Recombinant human G-CSF, hematopoietic growth factor used clinically to mobilize HSC and HPC (protein, UniProt P09919 31-207, looked up)", "Granulocyte …": "TPLGPASSLPQSFLLKCLEQVRKIQGDGAALQEKLVSECATYKLCHPEELVLLGHSLGIPWAPLSSCPSQALQLAGCLSQLHSGLFLYQGLLQALEGISPELGPTLDTLQLDVADFATTIWQQMEELGMAPALQPTQGAMPAFASAFQRRAGGVLVASHLQSFLEVSYRVLRHLAQP", "modifications": "filgrastim", "notes": "Recombinant human G-CSF, hematopoietic growth factor used clinically to mobilize HSC and HPC"}}, "key": {"[1]": {"test_system": "long term reconstituting cells (HSPC)", "test": "Competitive transplantation of mobilized peripheral blood into lethally irradiated congenic recipients (incl. serial transplant)", "format": "in vivo, mice", "conditions": "for potency of mobilization with AMD3100 compared with AMD3100 alone: AMD3100 5 mg/kg plus heparin 100 U/mouse or protamine sulfate 40 mg/kg, relative frequency of engrafted donor cells, AMD3100 alone = 1; for stem cell mobilization by the agent alone: Example 3, data not shown; for mobilization of long term reconstituting cells (PB competitive transplantation, primary recipients): wild type mice, single dose heparin 100 U/mouse added to G-CSF regimen", "experimental": "Blood from animals treated with single dose AMD3100 alone (5 mg/kg) or AMD3100 plus heparin (100 U/mouse) or protamine sulfate (40 mg/kg) was used in transplantation of lethally irradiated congenic hosts and the relative frequency of engrafted donor cells is indicated. Line at 1=AMD3100 alone. Results are from 6-10 animals/group.\nHypothesizing that endogenous HSPG could be competed with by known pharmacologic HSPG, we examined whether heparin sulfate could mimic the EXT1 deletion effect on stem cell localization. Initially, this was done using a single dose of heparin sulfate (100 U/mouse) after a standard G-CSF mobilization regimen, harvesting the peripheral blood and using it to reconstitute lethally irradiated congenic recipients (FIG. 3). The primary recipients were then harvested after 4 months and used to transplant secondary lethally irradiated recipients.\nFor non-competitive BM transplantation, to create the chimeras described in FIG. 1a, one million whole BM cells from B6.SJL (CD45.1) mice were transplanted into lethally irradiated (9.5 Gy from a Cesium source 4-24 hours before transplantation) Ext1-loxP/loxP-Mx1cre (CD45.2) recipients six-to-eight weeks before pIpC administration. Neutrophil and platelet recovery assay was performed as previously described (Hoggatt et al., 2013). Briefly, 3 million mobilized PB mononuclear cells (MNC) from C57BL/6J (CD45.2) mice were transplanted into lethally irradiated B6.SJL (CD45.1) mice and followed up for at least 36 days. For transplantation without cytotoxic conditioning, 1, 4 or 8 million whole BM cells from B6.SJL mice were transplanted into Ext1-loxP/loxP-Mx1cre recipients three weeks after pIpC administration. For competitive transplantation of mobilized peripheral blood (PB), 150 ul of PB (CD45.2) was mixed with 2×10^5 congenic BM support cells and injected into lethally irradiated CD45.1 recipients. Cells were infused via lateral tail vein injection. Engraftment was monitored at 4-week intervals by FACS analysis.\n(§1) Recombinant human G-CSF (Neupogen, Filgrastrim) was administered at 125 ug/kg of TBW every 12 hours for eight consecutive injections. Heparin Sodium (APP Pharmaceuticals) was injected i.p. at a single dose of 100 U. Hirudin was used at 40 mg/kg of TBW in a single dose. Vcam1 neutralizing antibody and the corresponding isotype control (Rat IgG2a, k) were injected intravenously at 2 mg/kg of TBW every day for three doses and PB samples were obtained through retro-orbital bleeding the day following the last injection. AMD3100 was administered subcutaneously at a single dose of 5 mg/kg TBW. PB samples were obtained through retro-orbital bleeding 3 hours after the last injection of G-CSF and 1 hour after Heparin, AMD3100, or Hirudin injection."}, "[2]": {"test_system": "CD34+ cells", "conditions": "cited from earlier work"}, "[3]": {"test_system": "HSPC", "test": "HSPC mobilization in mice (background statements, GRO-β and heparin)", "format": "in vivo", "conditions": "unlike G-CSF; data not shown", "experimental": "It does so acutely, mobilizing HSPC maximally by 15 minutes post infusion in mice. […] It is an excellent candidate to serve as a niche-vacating agent. We have also recently identified a novel involvement of heparan sulfate proteoglycans […] in HSC retention in the bone marrow that can be manipulated pharmacologically to induce stem cell mobilization of cells functionally distinctive from those mobilized by G-CSF. This process is one that involves the use of heparin and AMD3100 and achieves robust mobilization using approved agents that can quickly move to clinical trial."}, "[4]": {"test_system": "HSPC", "conditions": "cited from earlier work"}, "[5]": {"test": "Peripheral WBC count (complete blood count) after mobilization", "format": "in vivo", "conditions": "C57BL/6J mice; heparin alone 100 U/mouse one hour before PB harvest, vs vehicle", "experimental": "as §1\nBlood counts were performed with the automatic Vetscan HM2 (Abaxis)."}, "[6]": {"test_system": "circulating hematopoietic stem/progenitor cells (HSPC)", "test": "Peripheral blood colony forming unit (CFU-C) assay of circulating progenitors after mobilization", "format": "in vivo, mice", "experimental": "as §1\nCFU assays were performed as previously described (Ferraro et al., 2011). Equal volumes of PB (50 to 200 juL depending upon the experiment) were subjected to red blood cell lysis with ammonium-chloride-potassium buffer, resuspended in 4 ml of methocult M3434 (Stem Cell Technologies), plated in 35 mm culture dishes (1 mL/dish) and cultured at 37° C. for 8 days before scoring for colony formation."}, "[7]": {"test_system": "Vcam1", "test": "Vcam1 protein level in CD45−Ter119−Mx1+ mesenchymal cells (flow cytometry)", "format": "in vivo, mice", "conditions": "heparin one hour before PB harvest vs vehicle", "experimental": "Immunophenotypic characterization of the hematopoietic and mesenchymal compartments was performed as previously described (Gurumurthy et al., 2010). For details see supplementary information. Vcam1 and Cxcl12 protein levels were evaluated with an anti-Vcam1-APC and an anti-Cxcl12-APC antibody respectively and the corresponding isotype controls (R&D Systems). All data collection was performed on an LSRII or FACS Aria II (Beckon Dickinson) and data analysis was performed with FlowJo (Treestar).\nas §1"}, "[8]": {"test_system": "HSPCs", "test": "Type I diabetes-induced mobilopathy model, G-CSF mobilization with PB competitive transplantation", "format": "in vivo, mice", "conditions": "G-CSF alone", "excerpt": "Hematopoietic stem cell transplantation remains the gold standard curative therapy for a number of hematological disorders. However, G-CSF mobilization resistance may compromise lifesaving therapy for some individuals. We therefore evaluated whether genetic or pharmacological competitive inhibition of HSPG may facilitate G-CSF-induced HSPC egress from the BM in a murine model of Type I diabetes-induced mobilopathy (Ferraro et al., 2011). […] However, the compromised response to G-CSF was fully corrected in Type I diabetic mice lacking Ext1 expression in Mx1+ mesenchymal cells (FIG. 9K).\nFor non-competitive BM transplantation, to create the chimeras described in FIG. 1a, one million whole BM cells from B6.SJL (CD45.1) mice were transplanted into lethally irradiated (9.5 Gy from a Cesium source 4-24 hours before transplantation) Ext1-loxP/loxP-Mx1cre (CD45.2) recipients six-to-eight weeks before pIpC administration. Neutrophil and platelet recovery assay was performed as previously described (Hoggatt et al., 2013). Briefly, 3 million mobilized PB mononuclear cells (MNC) from C57BL/6J (CD45.2) mice were transplanted into lethally irradiated B6.SJL (CD45.1) mice and followed up for at least 36 days. […] Engraftment was monitored at 4-week intervals by FACS analysis. […]"}}, "note": "Entries after “also recorded” stand apart in the source; their conditions may differ."}
{"molecule": "c1cc(CN2CCCNCCNCCCNCC2)ccc1CN1CCCNCCNCCCNCC1", "note": "[AMD3100]", "values": [{"measurement": "G-CSF-induced mobilization in Ext1 deficient mice (relative PB reconstitution)", "setting": "[1]; AMD3100 in combination with G-CSF vs G-CSF alone", "result": "augments G-CSF-induced mobilization"}, {"measurement": "patients reporting diarrhea or injection site reaction", "setting": "[2]; after Plerixafor administration", "result": "approximately 33%"}]}
{"molecule": "GRO-β: CXCR2 agonist chemokine capable of rapidly mobilizing HSPCs", "values": [{"measurement": "changes in marrow morphology by immunohistochemistry", "setting": "[3]", "result": "not associated with changes in marrow morphology"}, {"measurement": "time of maximal HSPC mobilization post infusion", "setting": "[4]; mice", "result": 15, "unit": "min"}, {"measurement": "engraftment potential of mobilized long term repopulating HSCs compared with G-CSF", "setting": "[4]; mouse, in vivo", "result": "superior engraftment potential"}]}
{"molecule": "heparin", "values": [{"measurement": "WBC counts", "setting": "[5]", "result": "without a significant change"}, {"measurement": "number of circulating HSPCs as measured by CFU assays", "setting": "[6]; C57BL/6J mice, heparin alone 100 U/mouse one hour before PB harvest, vs vehicle (PBS)", "result": "modest, yet significant increase; also recorded: enhanced HSPC mobilization compared to vehicle"}, {"measurement": "AMD3100-induced mobilization (CFU) with co-administration of heparin", "setting": "[6]; heparin plus AMD3100 vs AMD3100 alone", "result": "enhances AMD3100-induced mobilization"}, {"measurement": "potency of mobilization with AMD3100 compared with AMD3100 alone", "setting": "[1]", "result": "enhance potency of mobilization compared with AMD3100 alone"}, {"measurement": "stem cell mobilization by the agent alone", "setting": "[1]", "result": "Neither were sufficiently effective alone"}, {"measurement": "secondary engraftment / self-renewal of mobilized cells (serial transplantation)", "setting": "[1]; heparin 100 U/mouse added to G-CSF regimen, vs G-CSF alone, secondary lethally irradiated recipients", "result": "distinctly more capable at providing secondary engraftment"}, {"measurement": "HSPC mobilization in Ext1 mutant (EXT1 KO) mice", "setting": "[1]; heparin added to G-CSF vs G-CSF alone, Ext1 mutant mice", "result": "loss of its effect"}, {"measurement": "mobilization of long term reconstituting cells (PB competitive transplantation, primary recipients)", "setting": "[1]; vs G-CSF alone", "result": "significantly enhances G-CSF induced mobilization"}, {"measurement": "mobilization of long term reconstituting cells (PB competitive transplantation, primary recipients)", "setting": "[1]; vs G-CSF alone, listed as heparin sulfate", "result": "additive mobilization of stem cells"}, {"measurement": "ability to induce mobilization on its own", "setting": "[4]; Frenette and Weiss, 2000", "result": "lack the ability to induce mobilization on its own"}, {"measurement": "Vcam1 levels in Mx1+ mesenchymal cells", "setting": "[7]", "result": "does not modulate Vcam1 levels"}]}
{"molecule": "hirudin", "values": [{"measurement": "effect on G-CSF-induced HSPC mobilization (relative PB reconstitution 16 weeks post transplantation)", "setting": "[1]; hirudin 40 mg/kg single dose with G-CSF, C57BL/6J mice", "result": "did not impact G-CSF-induced HSPC mobilization"}]}
{"molecule": "protamine sulfate", "values": [{"measurement": "potency of mobilization with AMD3100 compared with AMD3100 alone", "setting": "[1]", "result": "enhance potency of mobilization compared with AMD3100 alone"}, {"measurement": "stem cell mobilization by the agent alone", "setting": "[1]", "result": "Neither were sufficiently effective alone"}]}
{"molecule": "B1", "values": [{"measurement": "HSPC mobilization in Type I diabetic mice", "setting": "[8]", "result": "failed to efficiently mobilize HSPCs"}, {"measurement": "poor mobilization in response to G-CSF, share of normal, healthy donors", "setting": "[2]; normal, healthy donors", "result": 15, "unit": "%"}, {"measurement": "patients failing to mobilize an optimal CD34+ cell number for autologous transplantation", "setting": "[2]; patients, G-CSF mobilization", "result": "Up to 60%"}]}
